From ChEMBL document CHEMBL4402605, “A Chemical Switch for Transforming a Purine Agonist for Toll-like Receptor 7 to a Clinically Relevant Antagonist” (J Med Chem, 2020)
Activity calls are given as the source filed them. The calls are words filed in the database; no cut-off is given here.

Experiments:
Toll-like receptor 7 [1] = target: T1, Toll-like receptor 7 (Homo sapiens, UniProt Q9NYK1)
T1 sequence (Q9NYK1 whole entry): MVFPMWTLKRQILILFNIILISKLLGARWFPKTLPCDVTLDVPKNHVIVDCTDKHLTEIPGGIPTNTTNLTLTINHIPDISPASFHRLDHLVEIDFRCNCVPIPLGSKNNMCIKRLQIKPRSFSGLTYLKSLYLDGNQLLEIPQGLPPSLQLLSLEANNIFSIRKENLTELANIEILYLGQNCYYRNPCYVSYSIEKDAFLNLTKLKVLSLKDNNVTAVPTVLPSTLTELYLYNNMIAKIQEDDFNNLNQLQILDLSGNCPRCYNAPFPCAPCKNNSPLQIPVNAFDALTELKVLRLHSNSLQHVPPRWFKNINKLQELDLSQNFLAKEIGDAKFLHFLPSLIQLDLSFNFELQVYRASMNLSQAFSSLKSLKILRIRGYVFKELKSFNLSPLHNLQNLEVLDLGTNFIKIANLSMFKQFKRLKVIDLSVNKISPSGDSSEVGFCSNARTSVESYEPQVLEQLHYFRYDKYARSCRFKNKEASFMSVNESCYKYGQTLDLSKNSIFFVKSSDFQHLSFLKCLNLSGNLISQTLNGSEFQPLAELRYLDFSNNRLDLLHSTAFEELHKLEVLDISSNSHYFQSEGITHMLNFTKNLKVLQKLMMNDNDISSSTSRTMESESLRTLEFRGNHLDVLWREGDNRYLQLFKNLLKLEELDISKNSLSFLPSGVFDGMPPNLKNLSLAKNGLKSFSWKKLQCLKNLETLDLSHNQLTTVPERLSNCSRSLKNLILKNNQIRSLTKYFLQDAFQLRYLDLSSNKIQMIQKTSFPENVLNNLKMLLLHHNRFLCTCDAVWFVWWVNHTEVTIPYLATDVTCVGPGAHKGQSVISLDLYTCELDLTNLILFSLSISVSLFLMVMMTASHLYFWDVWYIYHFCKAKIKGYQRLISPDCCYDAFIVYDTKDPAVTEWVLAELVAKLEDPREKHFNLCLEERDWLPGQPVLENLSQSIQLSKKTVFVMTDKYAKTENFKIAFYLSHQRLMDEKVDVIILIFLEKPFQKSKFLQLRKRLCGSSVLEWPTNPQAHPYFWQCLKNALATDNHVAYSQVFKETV
Description: Antagonist activity at human TLR7 expressed in HEK-Blue cells assessed as inhibition of CL264-induced NFkappaB activation by measuring reduction in SEAP level after overnight incubation using qunati-blue reagent by SEAP reporter gene-based spectrophotometric method

[2] = target: T2, Toll-like receptor 8 (Homo sapiens) (UniProt Q9NR97); test: Antagonist activity at human TLR8 expressed in HEK-Blue cells assessed as inhibition of CL075-induced NFkappaB activation by measuring reduction in SEAP level up to 50 uM after overnight incubation using qunati-blue reagent by SEAP reporter gene-based spectrophotometric method; type: cell-based
T2 sequence (whole entry): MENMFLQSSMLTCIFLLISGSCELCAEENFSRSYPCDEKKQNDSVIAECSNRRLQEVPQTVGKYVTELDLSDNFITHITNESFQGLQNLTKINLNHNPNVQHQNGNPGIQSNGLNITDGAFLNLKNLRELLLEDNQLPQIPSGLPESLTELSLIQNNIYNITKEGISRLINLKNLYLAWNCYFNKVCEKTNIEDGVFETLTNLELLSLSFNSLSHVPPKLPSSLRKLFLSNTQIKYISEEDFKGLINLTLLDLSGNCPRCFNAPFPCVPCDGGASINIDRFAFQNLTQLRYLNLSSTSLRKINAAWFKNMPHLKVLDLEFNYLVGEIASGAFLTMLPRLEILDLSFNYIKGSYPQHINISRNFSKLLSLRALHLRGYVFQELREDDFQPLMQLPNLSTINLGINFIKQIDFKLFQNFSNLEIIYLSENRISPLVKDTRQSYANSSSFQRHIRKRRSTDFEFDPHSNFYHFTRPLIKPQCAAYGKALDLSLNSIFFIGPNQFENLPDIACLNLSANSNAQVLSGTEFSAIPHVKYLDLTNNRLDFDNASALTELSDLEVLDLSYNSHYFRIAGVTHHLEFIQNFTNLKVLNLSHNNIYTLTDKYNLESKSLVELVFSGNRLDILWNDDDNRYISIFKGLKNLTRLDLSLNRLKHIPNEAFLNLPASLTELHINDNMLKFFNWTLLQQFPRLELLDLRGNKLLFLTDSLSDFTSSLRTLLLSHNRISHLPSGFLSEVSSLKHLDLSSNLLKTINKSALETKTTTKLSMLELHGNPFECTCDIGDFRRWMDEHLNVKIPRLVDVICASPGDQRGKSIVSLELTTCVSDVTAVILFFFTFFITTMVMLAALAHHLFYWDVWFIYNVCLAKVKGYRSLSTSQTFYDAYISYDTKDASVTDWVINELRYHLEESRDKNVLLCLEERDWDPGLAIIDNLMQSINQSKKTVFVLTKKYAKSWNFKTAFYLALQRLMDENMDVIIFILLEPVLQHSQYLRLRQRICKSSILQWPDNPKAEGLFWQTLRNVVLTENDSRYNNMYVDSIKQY

Toll-like receptor 7 [3] = target: T1, Toll-like receptor 7; test: Agonist activity at human TLR7 expressed in HEK-Blue cells assessed as induction of NFkappaB activation by measuring increase in SEAP level after overnight incubation using qunati-blue reagent by SEAP reporter gene-based spectrophotometric method; type: cell-based

Compound | IC50 (Toll-like receptor 7 [1]) [µM] | inhibition [2] | EC50 (Toll-like receptor 7 [3]) [µM]
CCN1CCN(CCCn2cnc3c(N4CCNCC4)ncnc32)CC1 | 39.3 | inactive | 
CCCCOc1nc(N)c2nc(O)n(CCCN3CCCCC3)c2n1 |  |  | 2.6
CCN1CCN(c2ncnc3c2ncn3CCCN2CCCCC2)CC1 | 15.8 | inactive | 
CCN(CCO)CCCC(C)Nc1ccnc2cc(Cl)ccc12 (configuration not stated) [HYDROXYCHLOROQUINE] | 8.6 |  | 
CCN1CCN(CCCn2cnc3c(N4CCOCC4)ncnc32)CC1 | 25 | inactive | 
CCN1CCN(CCCn2c(O)nc3c(N)ncnc32)CC1 | 43.1 | inactive | 
CCN1CCN(c2ncnc3c2ncn3CCCN2CCCC2)CC1 | 48.3 | inactive | 
CCN1CCN(c2ncnc3c2ncn3CCCN2CCNCC2)CC1 |  | inactive | 
CCN1CCN(CCCn2cnc3c(N4CCCCC4)ncnc32)CC1 | 23.9 | inactive | 
CCN1CCN(c2ncnc3c2ncn3CCCN2CCOCC2)CC1 | 40 | inactive | 
